According to the NIST ThermoML archive (doi:10.1016/j.fluid.2009.12.009):

Assay: xn = mol fraction of the nth substance listed
Settings: 298.15 K, 101 kPa, Liquid, holographic laser-interferometry using flow junction cell

## CCCO [propan-1-ol] + O
x1 = 0.002
  binary diffusion coefficient: 1.04e-09 m2/s
x1 = 0.05
  binary diffusion coefficient: 5.2e-10 m2/s
x1 = 0.1
  binary diffusion coefficient: 1.7e-10 m2/s
x1 = 0.2
  binary diffusion coefficient: 1e-10 m2/s
x1 = 0.4
  binary diffusion coefficient: 1.9e-10 m2/s
x1 = 0.6
  binary diffusion coefficient: 3.3e-10 m2/s
x1 = 0.8
  binary diffusion coefficient: 5e-10 m2/s
x1 = 0.9
  binary diffusion coefficient: 5.3e-10 m2/s

## CC(C)=O [acetone] + CCCO
x1 = 0.015
  binary diffusion coefficient: 1.14e-09 m2/s
x1 = 0.1
  binary diffusion coefficient: 1.22e-09 m2/s
x1 = 0.2
  binary diffusion coefficient: 1.33e-09 m2/s
x1 = 0.3
  binary diffusion coefficient: 1.4e-09 m2/s
x1 = 0.4
  binary diffusion coefficient: 1.49e-09 m2/s
x1 = 0.5
  binary diffusion coefficient: 1.64e-09 m2/s
x1 = 0.6
  binary diffusion coefficient: 1.74e-09 m2/s
x1 = 0.7
  binary diffusion coefficient: 1.98e-09 m2/s
x1 = 0.8
  binary diffusion coefficient: 2.4e-09 m2/s
x1 = 0.9
  binary diffusion coefficient: 2.67e-09 m2/s
x1 = 0.985
  binary diffusion coefficient: 3.12e-09 m2/s

## CC(C)=O [acetone] + CCCCO
x1 = 0.0125
  binary diffusion coefficient: 9.5e-10 m2/s
x1 = 0.1
  binary diffusion coefficient: 1e-09 m2/s
x1 = 0.2
  binary diffusion coefficient: 1.07e-09 m2/s
x1 = 0.3
  binary diffusion coefficient: 1.13e-09 m2/s
x1 = 0.4
  binary diffusion coefficient: 1.29e-09 m2/s
x1 = 0.5
  binary diffusion coefficient: 1.38e-09 m2/s
x1 = 0.6
  binary diffusion coefficient: 1.49e-09 m2/s
x1 = 0.7
  binary diffusion coefficient: 1.72e-09 m2/s
x1 = 0.8
  binary diffusion coefficient: 1.85e-09 m2/s
x1 = 0.9
  binary diffusion coefficient: 2.43e-09 m2/s
x1 = 0.9915
  binary diffusion coefficient: 2.75e-09 m2/s
x1 = 0.9925
  binary diffusion coefficient: 2.73e-09 m2/s

## CCCCCl [1-chlorobutane] + CCCO
x1 = 0.013
  binary diffusion coefficient: 1.2e-09 m2/s
x1 = 0.1
  binary diffusion coefficient: 1.18e-09 m2/s
x1 = 0.3
  binary diffusion coefficient: 1.13e-09 m2/s
x1 = 0.5
  binary diffusion coefficient: 1.09e-09 m2/s
x1 = 0.7
  binary diffusion coefficient: 1.14e-09 m2/s
x1 = 0.9
  binary diffusion coefficient: 1.45e-09 m2/s
x1 = 0.97
  binary diffusion coefficient: 2.51e-09 m2/s

## CC(C)=O [acetone] + O
x1 = 0.004
  binary diffusion coefficient: 1.25e-09 m2/s
x1 = 0.1
  binary diffusion coefficient: 8e-10 m2/s
x1 = 0.3
  binary diffusion coefficient: 6.3e-10 m2/s
x1 = 0.5
  binary diffusion coefficient: 8.3e-10 m2/s
x1 = 0.7
  binary diffusion coefficient: 1.63e-09 m2/s
x1 = 0.9
  binary diffusion coefficient: 3.44e-09 m2/s
x1 = 0.975
  binary diffusion coefficient: 4.62e-09 m2/s
